# Patent US12404295B2, “(Hetero)aryl-methyl-thio-beta-D-galactopyranoside derivatives” (Idorsia Pharmaceuticals Ltd, priority 2019, dated 2025)
# Experiments:
# [1] = biological target: human Gal-3 (hGal-3) (Homo sapiens (Human), UniProt P17931); assay: competitive binding assay: biotinylated hGal-3 binding to microplate-adsorbed asialofetuin (ASF); conditions: Table 5; read-out: IC50 (Gal-3 inhibition)
# Procedure, shortened: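 Competition of compounds with biotinylated human Gal-3 for asialofetuin-coated plates, 3 hours at 4° C. Bound Gal-3 detected with streptavidin-peroxidase (80 ng/mL, 1 hour, 4° C) and ABTS substrate. IC50 reported as the mean of several measurements.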
# [2] = biological target: human Gal-1 (hGal-1) (Homo sapiens (Human), UniProt P09382); assay: competitive binding assay: biotinylated hGal-1 binding to microplate-adsorbed asialofetuin (ASF); conditions: Table 15; read-out: IC50 (Galectin-1 inhibition)
# human Gal-1 (hGal-1), sequence (P09382 whole entry): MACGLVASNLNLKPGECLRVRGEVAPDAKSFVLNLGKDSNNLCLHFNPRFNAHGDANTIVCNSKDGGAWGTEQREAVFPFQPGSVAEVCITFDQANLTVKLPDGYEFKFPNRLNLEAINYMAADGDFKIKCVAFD
# Procedure, shortened: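 Biotinylated human Gal-1 (300-1000 ng/mL) competes with serially diluted compound for binding to ASF-coated plates, 3 h at 4° C. Bound protein detected with streptavidin-peroxidase and ABTS substrate (spectrophotometric). IC50 given as mean of several measurements.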
# human Gal-3 (hGal-3), sequence (P17931 whole entry): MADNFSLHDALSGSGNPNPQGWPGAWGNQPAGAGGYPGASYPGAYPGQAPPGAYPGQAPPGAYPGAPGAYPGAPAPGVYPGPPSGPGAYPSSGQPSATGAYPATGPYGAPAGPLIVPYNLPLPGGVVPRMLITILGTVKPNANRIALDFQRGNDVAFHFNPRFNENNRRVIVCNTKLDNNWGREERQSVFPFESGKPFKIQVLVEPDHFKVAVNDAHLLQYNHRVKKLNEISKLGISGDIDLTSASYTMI
Substance,IC50 [1],IC50 [2]
"(2S,3R,4S,5R,6R)-2-(((S)-(1-Hydroxycyclohexyl)(4-methylisoxazol-3-yl)methyl)thio)-6-(hydroxymethyl)-4-(4-(3,4,5-trifluorophenyl)-1H-1,2,3-triazol-1-yl)tetrahydro-2H-pyran-3,5-diol [Example 2.39.120S.]",14.8 µM,70 µM
"(2S,3R,4S,5R,6R)-2-(((S)-(2,3-Dichlorophenyl)(4,4-difluoro-1-hydroxycyclohexyl)methyl)thio)-6-(hydroxymethyl)-4-(4-(3,4,5-trifluorophenyl)-1H-1,2,3-triazol-1-yl)tetrahydro-2H-pyran-3,5-diol [Example 2.44.113S.]",57.5 µM,56.8 µM
"(2S,3R,4S,5R,6R)-2-(((S)-(4,4-Difluoro-1-hydroxycyclohexyl)(2-(trifluoromethyl)phenyl)methyl)thio)-6-(hydroxymethyl)-4-(4-(3,4,5-trifluorophenyl)-1H-1,2,3-triazol-1-yl)tetrahydro-2H-pyran-3,5-diol [Example 2.44.112S.]",19.5 µM,17.6 µM
"(2S,3R,4S,5R,6R)-2-(((S)-(4-Hydroxy-2,2,6,6-tetramethyltetrahydro-2H-pyran-4-yl)(2-(trifluoromethyl)phenyl)methyl)thio)-6-(hydroxymethyl)-4-(4-(3,4,5-trifluorophenyl)-1H-1,2,3-triazol-1-yl)tetrahydro-2H-pyran-3,5-diol [Example 2.42.102S.]",7.82 µM,> 100 µM
"(2S,3R,4S,5R,6R)-2-(((S)-((R)-4-Hydroxy-2,2-dimethyltetrahydro-2H-pyran-4-yl)(o-tolyl)methyl)thio)-6-(hydroxymethyl)-4-(4-(3,4,5-trifluorophenyl)-1H-1,2,3-triazol-1-yl)tetrahydro-2H-pyran-3,5-diol [Example 2.43.112SR.]",4.9 µM,10.9 µM
"(2S,3R,4S,5R,6R)-2-(((S)-((S)-4-Hydroxy-2,2-dimethyltetrahydro-2H-pyran-4-yl)(2-(trifluoromethyl)phenyl)methyl)thio)-6-(hydroxymethyl)-4-(4-(3,4,5-trifluorophenyl)-1H-1,2,3-triazol-1-yl)tetrahydro-2H-pyran-3,5-diol [Example 2.43.102SS.]",3.92 µM,69.5 µM
"(2S,3R,4S,5R,6R)-2-(((S)-((S)-4-Hydroxy-2,2-dimethyltetrahydro-2H-pyran-4-yl)(o-tolyl)methyl)thio)-6-(hydroxymethyl)-4-(4-(3,4,5-trifluorophenyl)-1H-1,2,3-triazol-1-yl)tetrahydro-2H-pyran-3,5-diol [Example 2.43.112SS.]",7.3 µM,19.4 µM

# Now from value to substance:
IC50 [1],IC50 [2],Substance
0.93 µM,1.9 µM,"(2S,3R,4S,5R,6R)-2-(((S)-(2-Cyclopropylphenyl)(4,4-difluoro-1-hydroxycyclohexyl)methyl)thio)-6-(hydroxymethyl)-4-(4-(3,4,5-trifluorophenyl)-1H-1,2,3-triazol-1-yl)tetrahydro-2H-pyran-3,5-diol [Example 2.44.106S.]"
3 µM,21.8 µM,"(2S,3R,4S,5R,6R)-2-(((S)-(3,3-Difluoro-1-hydroxycyclobutyl)(3-(trifluoromethyl)pyridin-2-yl)methyl)thio)-6-(hydroxymethyl)-4-(4-(3,4,5-trifluorophenyl)-1H-1,2,3-triazol-1-yl)tetrahydro-2H-pyran-3,5-diol [Example 2.35.125S.]"
3.9 µM,55 µM,"(2S,3R,4S,5R,6R)-2-(((S)-((R)-4-Hydroxy-2,2-dimethyltetrahydro-2H-pyran-4-yl)(2-(trifluoromethyl)phenyl)methyl)thio)-6-(hydroxymethyl)-4-(4-(3,4,5-trifluorophenyl)-1H-1,2,3-triazol-1-yl)tetrahydro-2H-pyran-3,5-diol [Example 2.43.102SR.]"
